Read-outs that look alike come from different tables or passages of the source.
Target: T1, TbSir2rp1 (Trypanosoma brucei brucei, UniProt Q57V41)
T1 construct: The TbSir2rp1 gene was cloned into the pET24(+) expression plasmid (Novagen); His tag; made in house; host or cells: Escherichia coli BL21-Codon Plus (DE3)-RIL
T1 sequence (Q57V41 1-351): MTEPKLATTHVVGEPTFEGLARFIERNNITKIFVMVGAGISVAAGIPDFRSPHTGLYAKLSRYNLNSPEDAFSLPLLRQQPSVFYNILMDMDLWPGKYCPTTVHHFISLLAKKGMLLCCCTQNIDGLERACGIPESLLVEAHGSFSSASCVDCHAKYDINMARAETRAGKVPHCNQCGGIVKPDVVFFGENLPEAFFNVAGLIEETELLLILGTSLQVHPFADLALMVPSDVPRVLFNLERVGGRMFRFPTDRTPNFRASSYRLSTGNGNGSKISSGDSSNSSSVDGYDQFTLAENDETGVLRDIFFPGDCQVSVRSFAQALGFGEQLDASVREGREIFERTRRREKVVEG
Experiment: biochemical
Conditions: for ligand efficiency (LE): LE = –R·T·ln(IC50)/HAC, from TbSir2rp1 IC50; for Hill coefficient (nH): concentration–response curve against TbSir2rp1; for IC50: enzyme 1 μM, NAD+ 100 μM, acetylated peptide 50 μM, 37 °C, 2 h
Experimental: The acetylated peptide corresponds to the sequence Abz-Gly-Pro-acetylLys-SerGln–EDDnp, where Abz is ortho-aminobenzoic acid and EDDnp is N-[2,4-dinitrophenyl]ethylenediamine.
To halt the deacetylation reaction, 4 mM nicotinamide was used. For each pair of wells in the 96-well plate, 0.2 mg/mL of trypsin was added to only one well to hydrolyze the acetylated peptide, enabling fluorescence emission. Fluorescence was measured immediately at 420 nm with excitation at 320 nm using a SpectraMax M2 microplate reader (Molecular Devices).
Deacetylation activity was determined by the difference between the well where trypsin was added and the well without trypsin. All assays were performed in triplicate, and activity values were reported as means ± standard deviations with outliers identified and excluded from the calculations. Statistical analyses were conducted using Prism 7 software (GraphPad).
The screening of the 90 fragments was performed at a single concentration of 500 μM in triplicate. The enzyme was used at 1 μM, and the substrates NAD^+ and acetylated peptide were used at 100 and 50 μM, respectively. Incubation was carried out at 37.0 °C for 2 h. Each fragment was added to a pair of wells, with trypsin being added to only one well, as previously described for inhibitory activity calculation. […] Ligand efficiency (LE) was calculated as LE = –R·T·ln(IC50)/HAC using IC50 values instead of KD for comparison. […] The inhibition mechanism was characterized using Lineweaver–Burk plots under five concentrations of each substrate and three concentrations of the fragment. IC50 values were determined with at least seven different concentrations, and Lineweaver–Burk analysis used six concentrations.

[1] = read-out: % Inhibition TbSir2rp1, Table S2, complete fragment library, single concentration of 500 μM
[2] = read-out: % Inhibition TbSir2rp1 at 500 μM, Table 1, fragment 500 μM, triplicate, mean ± SD

SMILES	inhibition at 500 µM [1] [%]	also measured
NNS(=O)(=O)c1ccc(Cl)cc1 [NNS(=O)(C1=CC=C(Cl)C=C1)=O]	37 ± 24	–
COc1cc(C)c(NC(C)=O)cn1 [COC1=NC=C(NC(C)=O)C(C)=C1]	1.6 ± 13	–
NC(=O)N1c2ccccc2C=Cc2ccccc21 [O=C(N)N1C2=CC=CC=C2C=CC3=CC=CC=C31]	2.1 ± 5	–
CCOC(=O)c1c(C)oc2ncccc12 [CC1=C(C(OCC)=O)C2=C(O1)N=CC=C2]	-29 ± 12	–
Nc1cccc([N+](=O)[O-])c1 [NC1=CC=CC([N+]([O-])=O)=C1]	27 ± 0.91	–
Cn1cnc2c1c(=O)[nH]c(=O)n2C [O=C(N1)N(C)C2=C(N(C)C=N2)C1=O]	17 ± 4.4	–
CCOc1ccc(NC(C)=O)cc1 [CC(NC1=CC=C(OCC)C=C1)=O]	-5.5 ± 1.5	–
NC(=O)c1ncn([C@@H]2O[C@H](CO)[C@@H](O)[C@H]2O)n1	-11 ± 11	–
O=c1cc(-c2ccccc2)c2c(O)cc(O)cc2o1 [OC1=CC(O)=CC(O2)=C1C(C3=CC=CC=C3)=CC2=O]	17 ± 27	–
CCc1[nH][nH]c(=O)c1-c1cccnc1O [Fragment 3]	88 ± 14	ligand efficiency (LE): 0.37; Hill coefficient (nH): 1.77; inhibition at 500 µM [2]: 88.3 ± 14.2%
C(=N\c1nnc(Cc2ccccc2)o1)/c1ccccc1	41 ± 12	–
CCC1(CC)C(=O)NC(=O)NC1=O [O=C(NC(C1(CC)CC)=O)NC1=O]	19 ± 6	–
CCOC(=O)c1c(C)oc2c1ccc[n+]2[O-] [CC1=C(C(OCC)=O)C2=C(O1)[N+]([O-])=CC=C2]	-2.9 ± 10	–
CNC(=O)c1c(C(C)C)oc2nc(N3CCCC3)ccc12 [O=C(NC)C1=C(C(C)C)OC2=C1C=CC(N3CCCC3)=N2]	47 ± 10	–
O=S(=O)(c1ccc(Cl)cc1)c1ccc(Cl)cc1 [ClC1=CC=C(S(C2=CC=C(Cl)C=C2)(=O)=O)C=C1]	44 ± 12	–
Nc1ccc(S(=O)(=O)c2ccc(N)cc2)cc1 [NC1=CC=C(S(C2=CC=C(N)C=C2)(=O)=O)C=C1]	48 ± 4.1	–
CS(=O)(=O)Nc1cccc(-c2nc3ccccc3[nH]2)c1	-0.8 ± 4.1	–
Cc1oc2ncccc2c1C(=O)O [CC1=C(C(O)=O)C2=C(O1)N=CC=C2]	19 ± 17	–
NC(=O)c1cnccn1 [O=C(C1=NC=CN=C1)N]	22 ± 1.5	–
C/C(=N\NC(N)=O)c1ccncc1 [C/C(C1=CC=NC=C1)=N\NC(N)=O]	31 ± 13	–
NC(N)=NS(=O)(=O)c1ccc(N)cc1 [N/C(N)=N\S(=O)(C1=CC=C(N)C=C1)=O]	1.8 ± 1.9	–

SMILES	inhibition at 500 µM [1] [%]	also measured
O=C1C(O)=C(Nc2ccc(F)cc2)C(=O)c2ccccc21	71 ± 23	–
N/C(=N/c1ccccc1)Nc1ccccc1 [N/C(NC1=CC=CC=C1)=N/C2=CC=CC=C2]	2.6 ± 1.1	–
O=C(O)c1ccccc1O [O=C(O)C1=CC=CC=C1O]	-10 ± 1.7	–
CS(=O)(=O)Nc1cccc(-c2ccccc2)c1 [CS(NC1=CC=CC(C2=CC=CC=C2)=C1)(=O)=O]	35 ± 3.7	–
CC(=O)n1ncc2cc(Cl)ncc21 [ClC1=NC=C(N(C(C)=O)N=C2)C2=C1]	19 ± 9.9	–
CC(=O)NCCN1C(=O)CNC1=O [O=C(CN1)N(CCNC(C)=O)C1=O]	5.8 ± 3.4	–
CC(C)(Oc1ccc(C2CC2(Cl)Cl)cc1)C(=O)O (stereo not drawn) [CC(C)(OC1=CC=C(C2C(Cl)(Cl)C2)C=C1)C(O)=O]	4.9 ± 4.7	–
O=C1NC(=O)C(c2ccccc2)(c2ccccc2)N1 [O=C1NC(C(C2=CC=CC=C2)(C3=CC=CC=C3)N1)=O]	52 ± 2.3	–
Nc1nnc(-c2ccccc2)o1 [NC1=NN=C(O1)C2=CC=CC=C2]	16 ± 0.61	–
Cc1cccc(C)c1NC1=C(O)C(=O)c2ccccc2C1=O	39 ± 4.6	–
CCn1cc(C(=O)O)c(=O)c2ccc(C)nc21 [O=C(C1=CN(CC)C2=C(C=CC(C)=N2)C1=O)O]	-6.5 ± 2.2	–
C(=N\c1nncs1)/c1ccc(Sc2ccccc2)cc1	38 ± 1.7	–
COC(=O)Nc1nc2ccc(C(=O)c3ccccc3)cc2[nH]1 [mebendazole, reference compound]	–	ligand efficiency (LE): 0.24; IC50 (TbSir2rp1, read-out: IC50): 121 µM; Hill coefficient (nH): 1.25
CN(C)c1ccc(/C=N/c2nnc(-c3ccccc3)o2)cc1 [Fragment 4]	78 ± 2.3	ligand efficiency (LE): 0.25; IC50 (TbSir2rp1, read-out: IC50): 94.4 µM; Hill coefficient (nH): 1.10; inhibition at 500 µM [2]: 78.4 ± 2.3%
Cc1ccc(S(=O)(=O)N(C)/N=C/c2cccs2)cc1 [Fragment 9]	65 ± 1.7	inhibition at 500 µM [2]: 64.8 ± 1.7%
Cc1ccc(S(=O)(=O)n2cccn2)cc1 [CC1=CC=C(S(N2N=CC=C2)(=O)=O)C=C1]	8.4 ± 20	–
CC(C)Cc1ccc(C(C)C(=O)O)cc1 (stereo not drawn) [CC(C1=CC=C(CC(C)C)C=C1)C(O)=O]	-2.1 ± 0.21	–
CC1(C)CCC2=C(O1)C(=O)c1ccccc1C2=O [O=C(C1=C2OC(C)(C)CC1)C3=CC=CC=C3C2=O]	33 ± 14	–
CCOC(=O)c1c(C)oc2ncc(Br)cc12 [CC1=C(C(OCC)=O)C2=C(O1)N=CC(Br)=C2]	-7.1 ± 9.1	–
Sc1nnc(Cc2ccccc2)s1 [SC1=NN=C(CC2=CC=CC=C2)S1]	9.4 ± 1	–
Cc1cn([C@H]2C[C@H](N=[N+]=[N-])[C@@H](CO)O2)c(=O)[nH]c1=O	8.2 ± 1.4	–

SMILES	inhibition at 500 µM [1] [%]	also measured
Nc1cc2nc(-c3cccc(C(F)(F)F)c3)cn2cn1	19 ± 28	–
O=C(/C=C/c1ccc(Cl)cc1)c1cccs1 [O=C(/C=C/C1=CC=C(Cl)C=C1)C2=CC=CS2]	32 ± 8.5	–
CCOC1NN=C(c2ccccc2)N1 (stereo not drawn) [CCOC1NC(C2=CC=CC=C2)=NN1]	-3.3 ± 1.9	–
O=C1CCSc2nc(-c3ccccc3)nn21 [O=C1CCSC2=NC(C3=CC=CC=C3)=NN21]	3 ± 1.7	–
O=[N+]([O-])c1cccc(C2=NCCO2)c1 [O=[N+](C1=CC=CC(C2=NCCO2)=C1)[O-]]	44 ± 24	–
CCOC(=O)c1c(C)oc2nc(Cl)ccc12 [CC1=C(C(OCC)=O)C2=C(O1)N=C(Cl)C=C2]	-29 ± 18	–
O=C1Cc2cnccc2CN1 [Fragment 8]	55 ± 4.8	inhibition at 500 µM [2]: 55.5 ± 4.8%
Nc1ccc(S(N)(=O)=O)cc1 [O=S(C1=CC=C(N)C=C1)(N)=O]	-4.7 ± 2.3	–
NNC(=O)/C=C/c1ccccc1 [NNC(/C=C/C1=CC=CC=C1)=O]	42 ± 8.5	–
CN[C@@H](C)[C@H](O)c1ccccc1 [C[C@H](NC)[C@@H](C1=CC=CC=C1)O]	23 ± 6.4	–
NNC(=O)c1ccncc1 [O=C(C1=CC=NC=C1)NN]	-4.9 ± 2.4	–
Sc1nc2ccccc2s1 [Fragment 1.3]	–	IC50 (IC50, TbSir2rp1): 125 µM; ligand efficiency (LE): 0.54; Hill coefficient (nH): 1.04
CCOC(=O)c1ccc(N)cc1 [O=C(OCC)C1=CC=C(N)C=C1]	12 ± 1.4	–
N[C@@H](Cc1ccc(O)c(O)c1)C(=O)O [O=C(O)[C@@H](N)CC1=CC=C(O)C(O)=C1]	-4 ± 4.1	–
CC(C)NCC1CCc2cc(CO)c([N+](=O)[O-])cc2N1 (stereo not drawn)	–	inhibition at 500 µM (read-out: % Inhibition TbSir2rp1): 24 ± 7.9%
COC1=CC(=O)c2ccccc2C1=O [O=C(C1=C2C=CC=C1)C(OC)=CC2=O]	44 ± 3.7	–
COc1cc2cn[nH]c2cn1 [COC1=NC=C(NN=C2)C2=C1]	56 ± 15	–
Cc1ncc([N+](=O)[O-])n1CCO [CC1=NC=C([N+]([O-])=O)N1CCO]	14 ± 3.1	–
CCN(CC)CCOC(=O)c1ccc(N)cc1 [O=C(OCCN(CC)CC)C1=CC=C(N)C=C1]	50 ± 11	–
NC(=O)N1c2ccccc2CC(=O)c2ccccc21 [O=C(N)N1C2=CC=CC=C2CC(C3=CC=CC=C31)=O]	0.85 ± 6.5	–
